Experimental data from patent US20240294488A1, “ISOTOPOLOGES, SALTS, CRYSTALLINE FORMS, STEREOISOMERS, OF METHYLONE AND ETHYLONE AND METHODS OF USE THEREOF” (Terran Biosciences Inc., priority 2021, published 2024).

Experiments:
[1] = Metabolic stability in human liver microsomes; type: in vitro ADME; details: for difference in half-life and intrinsic clearance compared with the non-deuterated methylone hydrochloride: human liver microsomes; for half-life at 1 μM / microsomal CLint at 1 μM: pooled liver microsomes, pH 7.4, human liver microsomes 0.5 mg/mL, 1 μM compound, NADPH, 0-45 min
Description: Pooled liver microsomes are purchased from a reputable commercial supplier. Microsomes are stored at […] prior to use. Microsomes (final protein concentration 0.5 mg/mL), 0.1 M phosphate buffer pH 7.4 and test compound (final substrate concentration 1 μM; final DMSO concentration 0.25%) are preincubated at 37° C. prior to the addition of NADPH (final concentration 1 mM) to initiate the reaction. A minus cofactor control incubation is included for each compound tested where 0.1 M phosphate buffer pH 7.4 is added instead of NADPH (minus NADPH). Two control compounds are included with each species. All incubations are performed singularly for each test compound. Each compound is incubated for 0, 5, 15, 30 and 45 min. The control (minus NADPH) is incubated for 45 min only. The reactions are stopped by transferring incubate into acetonitrile at the appropriate time points, in a 1:3 ratio. The termination plates are centrifuged at 3,000 rpm for 20 min at 4° C. to precipitate the protein.
From a plot of ln peak area ratio (compound peak area/internal standard peak area) against time, the gradient of the line is determined. Subsequently, half-life and intrinsic clearance are calculated using the equations below:
where V=Incubation volume (μL)/Microsomal protein (mg)
Relevant control compounds were assessed, ensuring intrinsic clearance values fall within the specified limits (if available).

[2] = cited from earlier work
[3] = test system: C57/BL6J mice; experiment: Forced swim test (FST); type: in vivo, mouse; details: 24 h after administration
Description: As increased cortical structural plasticity in the anterior parts of the brain mediates the sustained (>24 h) antidepressant-like effects of ketamine and play a role in the therapeutic effects of 5-HT2A agonists, the impact of the present compounds on forced swim test (FST) behavior is evaluated. First, a pretest is used to induce a depressive phenotype. Compounds are administered 24 h after the pre-test, and the FST is performed 24 h and 7 d post compound administration.
Male C57/BL6J mice (9-10 weeks old at time of experiment) are obtained. After 1 week in the vivarium each mouse is handled for approximately 1 minute by the experimenter for 3 consecutive days leading up to the first FST. All experiments are carried out by the same experimenter who performs handling. During the FST, mice undergo a 6 min swim session in a clear Plexiglas cylinder 40 cm tall, 20 cm in diameter, and filled with 30 cm of 24±1° C. water. […] Immobility scores for all mice are determined after the pre-test and mice are randomly assigned to treatment groups to generate groups with similar average immobility scores to be used for the following two FST sessions. […] Experiments are video-recorded and manually scored offline. Immobility time—defined as passive floating or remaining motionless with no activity other than that needed to keep the mouse's head above water—is scored for the last 4 min of the 6 min trial.

Row | SMILES | difference in half-life and intrinsic clearance compared with the non-deuterated methylone hydrochloride [1] | half-life at 1 μM [1] [h] | microsomal CLint at 1 μM [1] [µL/min/mg] | Oral Methylone Dose, Drug Activity Level Very Strong ([2]; oral, modified from WHO 2014) [mg] | effect of re-dose on duration of effects ([2]; re-dose of one-third to one-half the initial dose, WHO 2014) | immobility in forced swim test [3]
1 | Cl.[2H]C1([2H])Oc2ccc(C(=O)C(C)NC)cc2O1 (racemic) [(rac)-Methylone-d2 hydrochloride, 1-(benzo[d][1,3]dioxol-5-yl-2,2-d2)-2-((methyl)amino)propan-1-one HCl] | demonstrated differences in half-life and intrinsic clearance | 2.45 | 9.46 | – | – | –
2 | Cl.[2H]C([2H])([2H])NC(C)C(=O)c1ccc2c(c1)OCO2 (racemic) [(rac)-Methylone-d3 hydrochloride, 1-(benzo[d][1,3]dioxol-5-yl)-2-((methyl-d3)amino)propan-1-one HCl] | demonstrated differences in half-life and intrinsic clearance | 2.88 | 8.02 | – | – | –
3 | Cl.[2H]C([2H])([2H])NC(C)C(=O)c1ccc2c(c1)OC([2H])([2H])O2 (racemic) [(rac)-Methylone-d5 hydrochloride, 1-(benzo[d][1,3]dioxol-5-yl-2,2-d2)-2-((methyl-d3)amino)propan-1-one HCl] | the most significant difference in half-life and intrinsic clearance | 3.05 | 7.59 | – | – | –
4 | Cl.[2H]C1([2H])Oc2ccc(C(=O)[C@@H](C)NC)cc2O1 [(R)-Methylone-d2 hydrochloride, (R)-1-(benzo[d][1,3]dioxol-5-yl-2,2-d2)-2-((methyl)amino)propan-1-one HCl] | demonstrated differences in half-life and intrinsic clearance | 3.3 | 7 | – | – | –
5 | Cl.[2H]C([2H])([2H])N[C@H](C)C(=O)c1ccc2c(c1)OCO2 [(R)-Methylone-d3 hydrochloride, (R)-1-(benzo[d][1,3]dioxol-5-yl)-2-((methyl-d3)amino)propan-1-one HCl] | demonstrated differences in half-life and intrinsic clearance | 3.57 | 6.49 | – | – | –
6 | Cl.[2H]C([2H])([2H])N[C@H](C)C(=O)c1ccc2c(c1)OC([2H])([2H])O2 [(R)-Methylone-d5 hydrochloride, (R)-1-(benzo[d][1,3]dioxol-5-yl-2,2-d2)-2-((methyl-d3)amino)propan-1-one hydrochloride] | the most significant difference in half-life and intrinsic clearance | 3.68 | 6.27 | – | – | –
7 | Cl.[2H]C1([2H])Oc2ccc(C(=O)[C@H](C)NC)cc2O1 [(S)-Methylone-d2 hydrochloride, (S)-1-(benzo[d][1,3]dioxol-5-yl-2,2-d2)-2-(methylamino)propan-1-one hydrochloride] | demonstrated differences in half-life and intrinsic clearance | 2.45 | 9.41 | – | – | –
8 | Cl.[2H]C([2H])([2H])N[C@@H](C)C(=O)c1ccc2c(c1)OCO2 [(S)-Methylone-d3 hydrochloride, (S)-1-(benzo[d][1,3]dioxol-5-yl)-2-((methyl-d3)amino)propan-1-one HCl] | demonstrated differences in half-life and intrinsic clearance | 2.4 | 9.6 | – | – | –
9 | Cl.[2H]C([2H])([2H])N[C@@H](C)C(=O)c1ccc2c(c1)OC([2H])([2H])O2 [(S)-Methylone-d5 hydrochloride, (S)-1-(benzo[d][1,3]dioxol-5-yl-2,2-d2)-2-((methyl-d3)amino)propan-1-one hydrochloride] | the most significant difference in half-life and intrinsic clearance | 2.55 | 9.07 | – | – | –
10 | CNC(C)C(=O)c1ccc2c(c1)OCO2 (stereo not drawn) [Methylone, 3,4-methylenedioxy-N-methylcathinone] | – | – | – | ≥270 | prolongs duration for approximately one hour | –
11 | CNC1(c2ccccc2Cl)CCCCC1=O (stereo not drawn) [ketamine] | – | – | – | – | – | significantly reduced immobility
